Test results reported in patent publication US5608047A, “Cyclic ADP-ribose and analogs” (Wisconsin Alumni Research Foundation, priority 1995, dated 1997).

Tested on: rat brain microsomes
Experiment: Ca2+ release measurement with fluo-3 in rat brain microsomes
Assay type: biochemical
Conditions: for EC50: extramicrosomal Ca2+ by fluo-3, read-out: ED50 of Ca^2+ release
Procedure: Ca^2+ release measurements as follows: Rat brain microsomes were prepared on the day of the experiment. Loading of the microsomes with Ca^2+ took approximately 30 minutes at 24° C. and was used at a protein concentration of 0.5 mg/ml. The free Ca^2+ used for Ca^2+ loading was 0.5 to 2 uM and was present in the loading solution as a contaminant. Ca^2+ uptake and release was followed by measuring extramicrosomal Ca^2+ using fluo-3 (Cal-Biochem) (1 uM). Fluorescence intensity of fluo-3 was measured at excitation and emission wavelength of 490 and 535 nm respectively. Fluorimetry was performed on 500 ul aliquots of microsomes using a Perkin Elmer MF-3. Additions were made in volumes of 1-5 ul and all chemicals were added in incubation medium containing 10 uM EGTA. Ca^2+ traces were calibrated by adding Ca^2+ standard solution.
Ca^2+ release measurements were done as outlined in Example 1.

heparin
effect on Ca^2+ release induced by IP3 (release induced by IP3): blocked Ca^2+ release induced by IP3

NC(=O)c1ccc[n+]([C@@H]2O[C@H](COP(=O)([O-])OP(=O)(O)OC[C@H]3O[C@@H](n4cnc5c(N)ncnc54)[C@H](O)[C@@H]3O)[C@@H](O)[C@H]2O)c1 [β-NAD]
Ca^2+ release caused by the substance: caused no Ca^2+ release

N=c1c2ncn3c2ncn1[C@@H]1O[C@H](COP(=O)(O)OP(=O)(O)OP(=O)(O)OC[C@H]2O[C@@H]3[C@H](O)[C@@H]2O)[C@@H](O)[C@H]1O [cATPR, cycle ATP-ribose]
EC50: 5 nM
potency relative to cADPR (times more potent) (ratio of ED50 values): approximately 20 times

ryanodine
effect on Ca^2+ release induced by cADPR (release induced by cADPR): inhibited release of Ca^2+ by cADPR

Nc1ncnc2c1ncn2[C@@H]1O[C@H](COP(=O)(O)OP(=O)(O)OC[C@H]2OC(O)[C@H](O)[C@@H]2O)[C@@H](O)[C@H]1O (stereo partly shown) [ADPR, ADP-ribose]
Ca^2+ release caused by the substance: caused no Ca^2+ release

N=c1c2ncn3c2ncn1[C@@H]1O[C@H](COP(=O)(O)OP(=O)(O)OC[C@H]2O[C@@H]3[C@H](O)[C@@H]2O)[C@@H](O)[C@H]1O [cADPR, cyclic ADP-ribose]
EC50: 100 nM
